{"source": "patent US8227418B2", "about": "(priority 2004, dated 2012)", "key": {"[1]": {"test_system": "anthrax LeTx cytolysis of RAW 264.7 cells"}, "[2]": {"test_system": "cleavage of MKK3b by LF in RAW 264.7 macrophages", "format": "cell-based, murine"}, "[3]": {"test_system": "ERK and p38 MAPK phosphorylation in RAW 264.7 cells", "format": "cell-based, murine"}, "[4]": {"target": "LF (anthrax lethal factor) (Bacillus anthracis, UniProt P15917)", "format": "biochemical, B. anthracis"}, "LeTx intoxication": {"test_system": "LeTx intoxication", "parameters": "species or system Balb/c mice", "details": "mouse, in vivo, iv"}}, "data": [{"substance": "HNP-1", "values": [{"measurement": "Prevention of LeTx toxicity by pre-treatment of macrophages", "setting": "[1]", "value": "prevented LeTx toxicity in a HNP-1 dose dependent manner"}, {"measurement": "Protection of RAW 264.7 cells 24 hrs after LeTx treatment", "setting": "[1]", "value": "protection was observed even 24 hrs after LeTx treatment"}, {"measurement": "Protection of RAW 264.7 cells against cytotoxicity by LeTx (co-treatment)", "setting": "[1]", "value": "completely abolished cytotoxicity"}, {"measurement": "Protection of RAW 264.7 cells from LeTx induced cytotoxicity under serum-supplemented conditions", "setting": "[1]", "value": "still protected cells from LeTx induced cytotoxicity"}, {"measurement": "Inhibition of MKK3b cleavage in LeTx treated cells", "setting": "[2]", "value": "efficiently inhibited"}, {"measurement": "Restoration of ERK and p38 phosphorylation inhibited by LeTx", "setting": "[3]", "value": "phosphorylation of these two MAPKs was restored"}, {"measurement": "Inhibition of in vitro MKK3b proteolysis by LF", "setting": "[4]", "value": "proteolysis was efficiently inhibited"}]}, {"substance": "LL-37", "values": [{"measurement": "Protection of RAW 264.7 cells against cytotoxicity by LeTx (co-treatment)", "setting": "[1]", "value": "did not display any significant effect"}, {"measurement": "Inhibition of in vitro MKK3b proteolysis by LF", "setting": "[4]", "value": "did not prevent cleavage of MKK3b"}, {"measurement": "Protection of mice from LeTx intoxication (survival)", "setting": "LeTx intoxication", "value": "had no effect on LeTx toxicity"}]}, {"substance": "Magainin I", "values": [{"measurement": "Inhibition of in vitro MKK3b proteolysis by LF", "setting": "[4]", "value": "did not prevent cleavage of MKK3b"}]}, {"substance": "HNP-2 (CYCRIPACIAGERRYGTCIYQGRLWAFCC; homo sapiens)", "values": [{"measurement": "Protection of RAW 264.7 cells against cytotoxicity by LeTx (co-treatment)", "setting": "[1]", "value": "showed similar protection"}]}]}
